Patent publication US20260207535A1, “CRIBLAGE INHIBITEURS USP8” (COMMISSARIAT A L'ENERGIE ATOMIQUE ET AUX ENERGIES …, priority 2022, published 2026)

What was measured:
[1] = target: T1, UCH-L3 (Homo sapiens, UniProt P15374); test: UCH-L3 inhibition assay (Ub-Rhodamine); type: biochemical; conditions: UCH-L3 3 nM
T1 construct: or the more distant UCH-L3 enzyme (Full length); purchased BostonBiochem E-325
T1 sequence (P15374 1-230): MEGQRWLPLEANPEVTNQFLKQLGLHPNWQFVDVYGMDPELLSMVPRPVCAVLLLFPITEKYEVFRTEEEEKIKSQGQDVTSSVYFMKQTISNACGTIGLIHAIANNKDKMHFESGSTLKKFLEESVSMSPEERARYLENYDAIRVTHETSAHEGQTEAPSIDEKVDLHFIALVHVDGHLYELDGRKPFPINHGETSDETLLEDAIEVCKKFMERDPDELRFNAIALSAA
Procedure: UCH-L3 (BostonBiochem ref. E-325) was used at a concentration of 3 nM in the presence of the Ub-Rhodamine. Enzymatic inhibition was monitored as for USP8 or USP2 CD.

[2] = tested on: AtT-20 pituitary cells; test: Inhibition of ACTH secretion in pituitary cells (ACTH EIA on supernatant); type: cell-based, mouse
Procedure: ACTH release (percent comparison to DMSO control). Briefly, 12,500 AtT-20 cells per well were seeded in a 96-well plate. After 24 hours exposure, cells were treated with each compound at the indicated final concentration, or with DMSO alone (control condition compound solvent) or with corticotropin releasing factor (indicated CRF) at 100 nM. After a 24-hour treatment, cell supernatants were collected and stored at −80° C., prior to quantification of ACTH concentration using ACTH chemiluminescent EIA kit (Phoenix Pharmaceuticals, Inc.). Determination of ACTH concentrations was based on the best-fitting ACTH standard curve and P values were calculated using one-way ANOVA, using Prism 9 software (GraphPad Software, Inc.) ns (P=0.12). **P<0.002. ***P<0.001. All compounds were tested in technical triplicates. One representative experiment out of three is presented.
FIG. 4: illustrates a decrease of ACTH secretion by AtT-20 cells after 24-hour treatment of halogenated salicylanilides. 12,500 AtT-20 cells per well were seeded in a 96-well plate. […] After a 24-hour treatment, cell supernatants were collected and stored at −80° C., prior to quantification of ACTH concentration using ACTH chemiluminescent EIA kit (Phoenix Pharmaceuticals, Inc.). Determination of ACTH concentrations was based on the best-fitting ACTH standard curve and P values were calculated by ordinary one-way ANOVA using Prism 6 software (GraphPad Software, Inc), ns (not significant), **** P<0.0001. Compounds were tested in technical triplicates.
12,500 AtT-20 cells per well were seeded in a 96-well plate. After 24 hours, cells were treated with compounds (corresponding chemical formula are indicated in Table 1) at 25 μM final concentration, or with DMSO alone (compound solvent). After a 24-hour treatment, cell supernatants were collected and stored at −80° C., prior to quantification of ACTH concentration using ACTH chemiluminescent EIA kit (Phoenix Pharmaceuticals, Inc.). Determination of ACTH concentrations was based on the best-fitting ACTH standard curve and P values were calculated by ordinary one-way ANOVA using Prism 6 software (GraphPad Software, Inc), ns (not significant), *P<0.05, ***P<0,0001. Compounds were tested in technical triplicates.
Mouse AtT-20 pituitary cell line were used as a powerful and well-characterized model to monitor ACTH secretion using an enzyme immunoassay (EIA) kit.
Mouse AtT-20 cells were obtained from the American Type Culture Collection and maintained on DMEM containing 10% fetal bovine serum, 100 μg/mL streptomycin and 100 U/mL penicillin at 37° C. with 5% CO2 after recovery from long-term storage on liquid nitrogen-vapor phase.
The ACTH secretion levels of AtT-20 cell culture was monitored on the supernatant of AtT-20 cells treated or not by increasing doses of compounds belonging to the family of halogenated salicylanilides chemicals.
1.25×10^4 AtT20 cells were seeded on polylysine-coated 96-well culture vessels on 150 μL of complete medium. After 24 hours, cells were treated with stock compounds to a final DMSO concentration of 0.5%. After 24 hours of treatment, cell culture supernatant was collected, cleared for 10 min at 1000×g at 4° C., diluted or not in assay buffer (Phoenix Peptide ACTH EIA EK-001-21) and frozen at −80° C. for subsequent processing according to the instructions of the kit's manufacturer.

[3] = tested on: POMC gene; test: POMC encoding gene expression (quantitative RT-PCR, normalized to HPRT); type: cell-based, mouse; conditions: 10, 20, 30 and 36 μM, 24 hours, vs DMSO
Procedure: Each dot represents the amount of POMC encoding transcripts normalized to the amount of transcripts encoding the housekeeping gene HPRT and then compared to the DMSO control condition. Mean of technical triplicates with errors bars.
ACTH production depends on the activation of the proopiomelanocortin (POMC) gene encoding the ACTH precursor.
3.75×10^5 AtT20 cells were seeded on polylysine-coated 6-well culture microplates on 2.4 mL complete medium. After 24 hours, cells were treated with stock compounds to a final DMSO concentration of 0.5%. After 24 hours of treatment, cells were briefly rinsed with 37° C. DPBS (no calcium, no magnesium modification), lysed with the LBP reagent from the NucleoSpin® RNA Plus kit (Macherey-Nagel 740984.50) and then frozen at −70° C. before continuing with the RNA extraction protocol as per manufacturer's instructions. 1 μg RNA was used to synthesize cDNA using the AffinityScript QPCR cDNA Synthesis Kit (Agilent #600559). qPCR reaction was performed using the primers against the mouse POMC gene (5′-CCTCCTGCTTCAGACCTCCATAGAT-3′ and 5′-GTCTCCAGAGAGGTCGAGTTT). […] Detection was done using the Brilliant II SYBR® Green QPCR Master Mix (Agilent #600828), and readings were done using a Stratagene Mx3005P equipment.

[4] = tested on: AtT-20 cells
Text: The AtT-20 cells viability was monitored in the conditions used to follow ACTH secretion. The viability of treated cells was concomitantly evaluated using a Cell Viability Reagent (monitoring of the cells' reducing capacity) (PrestoBlue® assay, Molecular Probes) with the aim to determine non-toxic doses of cell treatment.
After the collection of the supernatant sample for the ACTH assay in the previous step, cells were supplemented with the PrestoBlue™ cell viability reagent (Invitrogen™ A13261) at 10% final volume, and re-incubated at 37° C. for 30 minutes. Fluorescence was then read with a FLUOstar OPTIMA microplate reader.

`Cc1cc(C(C#N)c2ccc(Cl)cc2)c(Cl)cc1NC(=O)c1cc(I)cc(I)c1O` (stereo not drawn) [Closantel, reference compound] was tested, and the “activity against UCH-L3” value [1] was “not active”, the “reduction in ACTH release” value ([2]; 5.62 μM, compared to control) was 20% and the “inhibition of ACTH at 25 μM, in words (FIG. 4, FIG. 5)” value ([2]; 25 μM, 24-hour treatment) was “significant inhibition”. For the same molecule, the ACTH secretion reduction ([2]; 30 μM, compared to control conditions) was 60%, the activity at 25 µM ([2]; Mus musculus, AtT20, 25 μM, 24-hour treatment, AtT-20 supernatant, read-out: ACTH secretion % of control (DMSO) at 25 μM) was 65% and the “dose-dependent inhibition of ACTH (FIG. 3)” value ([2]; increasing concentrations, 24-hour treatment) was “significant dose-dependent inhibition”. For the same molecule, the “POMC mRNA species (FIG. 8)” value [3] was “strong decrease”, the “dose-dependent viability assay, in words (FIG. 7)” value [4] was “less cytotoxic than niclosamide” and the “AtT-20 cell viability (PrestoBlue assay) % of control (DMSO) at 25 μM Mean (SD)” value ([4]; mouse, 24 h, 25 μM) was 104.8 (16.08) %.
